The target of one assay is T1, human thrombin (Homo sapiens, UniProt P00734).
T1 construct: human thrombin; purchased Sigma-Aldrich
Put plainly: Protease inhibitory assay, chromogenic substrate S-2238. Type of assay: biochemical. The following applies: for vinit: replicate values; for Ki: Thrombin, one of two values averaged in Supplementary Data 1, read-out: Ki.

The target in the next assay is T2, bovine factor Xa (Bos taurus, UniProt P00743).
T2 construct: bovine factor Xa, Chromogenix, 2 nkat/mL; purchased Chromogenix
T2 sequence (P00743 234-492 limits assumed): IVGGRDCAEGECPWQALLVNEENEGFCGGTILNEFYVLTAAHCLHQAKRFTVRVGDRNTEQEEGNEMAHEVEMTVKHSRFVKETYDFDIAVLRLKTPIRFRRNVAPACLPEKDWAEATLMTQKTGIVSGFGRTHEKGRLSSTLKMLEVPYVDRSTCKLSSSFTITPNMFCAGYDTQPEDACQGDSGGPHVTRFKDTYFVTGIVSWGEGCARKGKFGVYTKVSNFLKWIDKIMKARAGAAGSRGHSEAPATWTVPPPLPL
T2 sequence (P00743 41-180 partner limits assumed): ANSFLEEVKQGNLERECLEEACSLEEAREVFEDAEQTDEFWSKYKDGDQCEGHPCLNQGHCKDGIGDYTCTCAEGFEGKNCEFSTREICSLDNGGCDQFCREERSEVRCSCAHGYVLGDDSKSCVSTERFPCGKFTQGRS
Put plainly: Protease inhibitory assay, chromogenic substrate S-2222. The format is biochemical. The following applies: cmpd conc 200 µM; for vinit: replicate values; for Ki: FactorXa, one of two values averaged in Supplementary Data 1, read-out: Ki.

Where [1] appears, read: Thrombin primary screening, substrate 40 µM, cmpd conc 500 µM.
Where [2] appears, read: FactorXa primary screening, substrate 100 µM.
[3] abbreviates: FactorXa Ki determination, substrate 100 µM.
Where [4] appears, read: FactorXa Ki determination, substrate 200 µM.
Where [5] appears, read: Thrombin Ki determination, substrate 20 µM, cmpd conc 200 µM.
The mark [6] stands for this setting: Thrombin Ki determination, substrate 40 µM, cmpd conc 200 µM.
Where [7] appears, read: substrate 20 µM, cmpd conc 200 µM.
[8] abbreviates: substrate 40 µM, cmpd conc 200 µM.

Structures are written as SMILES. Values joined by “and” are separate entries in the source; they are usually repeats but may differ in a detail not shown here. Identical values can stand only once. Like-named read-outs stand apart in the source and are kept apart here.

As usually defined, the Ki is the dissociation constant of the complex between target and ligand, obtained from inhibition or displacement.

For the compound `NC1CCc2ccccc21` (centres unmarked) [SX-B4], the “V0 / Vi” value amounted to 0.96 at human thrombin (setting [1]) and 0.93 at bovine factor Xa (setting [2]). The vinit on human thrombin (setting [1]) is 31.2 and 30.982; at bovine factor Xa (setting [2]) it was 18.714 and 18.143.
As for `N[C@H]1c2ccccc2C[C@H]1CO` [SX-B5], the “V0 / Vi” value on human thrombin (setting [1]) is 0.98; at bovine factor Xa (setting [2]), 0.91. Also, the vinit is 32.873 and 28.182 on human thrombin (setting [1]); 18.071 and 19.643 on bovine factor Xa (setting [2]).
`O=c1[nH]ncc2c1oc1ccccc12` [SX-B6]: at human thrombin (setting [1]), the “V0 / Vi” value was determined as 1.05; the vinit is 28.582 and 28.145. Further, at bovine factor Xa (setting [2]), the “V0 / Vi” value turned out to be 1.00; the vinit is 17.214 and 17.071.
`O=C1NC(=O)C2(CCc3ccccc32)N1` (centres unmarked) [SX-B7]: at human thrombin (setting [1]), the “V0 / Vi” value came to 0.98; the vinit was 31.782 and 31.345. Also, at bovine factor Xa (setting [2]), the “V0 / Vi” value is recorded as 0.98; the vinit was 19.273 and 17.122.
As to `CS(=O)(=O)c1ccc(OC(F)(F)F)cc1` [SX-B8], on human thrombin (setting [1]), the “V0 / Vi” value stood at 0.99; the vinit was 31.709 and 31.2. Further, at bovine factor Xa (setting [2]), the “V0 / Vi” value was found to be 0.94; the vinit was 20.109 and 18.073.
For `Cc1cnc(C(F)(F)F)cn1` [SX-B9], at human thrombin (setting [1]), the “V0 / Vi” value was 1.01; the vinit was 31.164 and 30.509. At bovine factor Xa (setting [2]), the “V0 / Vi” value was 0.98; the vinit is 18.8 and 17.6.
`CN1CC(=O)NC1=O` [SX-B10]: at human thrombin (setting [1]), the “V0 / Vi” value came out at 0.98; the vinit was 32.909 and 30.982. For the same compound, at bovine factor Xa (setting [2]), the “V0 / Vi” value came to 0.98; the vinit is 14 and 15.6.
In the case of `Cc1cc(N)no1` [SX-B11], on human thrombin (setting [1]), the “V0 / Vi” value worked out at 1.00; the vinit was 30.982 and 31.927. For the same compound, on bovine factor Xa (setting [2]), the “V0 / Vi” value came to 0.97; the vinit is 13.08 and 16.72.
For the compound `COc1ccccc1CC1CCNCC1.Cl` [SX-B12], the “V0 / Vi” value at human thrombin (setting [1]) was 0.97; on bovine factor Xa (setting [3]), 1.28; on bovine factor Xa (setting [4]), 1.25; at bovine factor Xa (setting [2]), 1.35. In addition, the vinit on human thrombin (setting [1]) was 32.327 and 32.218; on bovine factor Xa (setting [3]), 13.1265 and 12.596 and 12.46; on bovine factor Xa (setting [4]), 26.514 and 31.33 and 29.51; at bovine factor Xa (setting [2]), 10.3 and 11.164. The “vinit, avrg.” value at bovine factor Xa (setting [3]) was 12.727. The figures for the inhibitory constant (Ki) on bovine factor Xa (substrate 100 µM) and at bovine factor Xa (substrate 200 µM) were 445 µM and 357 µM, respectively.
Turning to `Fc1ccc(CC2CCCNC2)cc1` (centres unmarked) [SX-C1], the “V0 / Vi” value at human thrombin (setting [1]) turned out to be 0.97; at bovine factor Xa (setting [2]), 0.94. Further, the vinit was 29.564 and 30.8 on human thrombin (setting [1]); 18.218 and 18.909 on bovine factor Xa (setting [2]).
As to `c1ccc(-c2ccncc2)cc1` [SX-C2], at human thrombin (setting [1]), the “V0 / Vi” value was 0.98; the vinit is 30.473 and 29.273. Further, on bovine factor Xa (setting [2]), the “V0 / Vi” value worked out at 1.01; the vinit was 16.764 and 18.
`NC(c1ccccc1)c1ccccc1` [SX-C3]: on human thrombin (setting [1]), the “V0 / Vi” value amounted to 1.07; the vinit is 27.818 and 27.309. Moreover, at bovine factor Xa (setting [2]), the “V0 / Vi” value came to 0.95; the vinit was 19.527 and 17.564.
As to `c1ccc2c(N3CCNCC3)ccnc2c1` [SX-C4], on human thrombin (setting [1]), the “V0 / Vi” value is 1.01; the vinit was 30.291 and 29.018. Besides, at bovine factor Xa (setting [2]), the “V0 / Vi” value is on record as 1.03; the vinit is 16.357 and 17.
Turning to `O=c1ccc2c([nH]1)CCCC2` [SX-C5], at human thrombin (setting [1]), the “V0 / Vi” value was 1.00; the vinit was 30.182 and 29.673. At bovine factor Xa (setting [2]), the “V0 / Vi” value came out at 1.05; the vinit is 16.714 and 16.
As to `CC1(C)OC(=O)c2cc(Br)c(O)cc2O1` [SX-C6], at human thrombin (setting [1]), the “V0 / Vi” value was found to be 1.14; the vinit is 27.418 and 25.091. In addition, on bovine factor Xa (setting [2]), the “V0 / Vi” value stood at 1.03; the vinit was 16.857 and 16.429.
In the case of `CC(=O)c1ccc2c(c1)CCCN2` [SX-C7], at human thrombin (setting [1]), the “V0 / Vi” value is 0.96; the vinit is 32.218 and 32.109. Further, at bovine factor Xa (setting [2]), the “V0 / Vi” value is on record as 1.02; the vinit was 17.382 and 17.673.
For the compound `CC(=O)c1ccc2c(c1)CNCC2` [SX-C8], at human thrombin (setting [1]), the “V0 / Vi” value is given as 0.98; the vinit was 32.218 and 31.018. On bovine factor Xa (setting [2]), the “V0 / Vi” value worked out at 0.98; the vinit was 18.691 and 17.818.
`O=C1NC2(CCCC2)Nc2ccccc21` [SX-C9]: at human thrombin (setting [1]), the “V0 / Vi” value worked out at 1.01; the vinit is 30.218 and 31.018. For the same compound, on bovine factor Xa (setting [2]), the “V0 / Vi” value amounted to 0.98; the vinit is 18.873 and 17.6.
For `O=c1[nH]c2c(s1)CCC2` [SX-C10], at human thrombin (setting [1]), the “V0 / Vi” value is listed as 0.94; the vinit is 33.418 and 33.127. On bovine factor Xa (setting [2]), the “V0 / Vi” value was 1.04; the vinit is 13.7 and 14.2.
For the compound `C1=C[C@H]2O[C@@H]1c1ccccc12` [SX-C11], on human thrombin (setting [1]), the “V0 / Vi” value is 0.96; the vinit was 33.564 and 31.964. For the same compound, at bovine factor Xa (setting [2]), the “V0 / Vi” value is listed as 0.94; the vinit was 15.415 and 15.185.
Turning to `N#Cc1ccc2ncsc2c1` [SX-C12], the “V0 / Vi” value at human thrombin (setting [1]) was found to be 0.98; on bovine factor Xa (setting [2]), 1.17. The vinit was 31.855 and 32.109 on human thrombin (setting [1]); 10.6 and 14 at bovine factor Xa (setting [2]).
On to `Nc1ccc(SC(F)F)cc1` [SX-D1], for which, at human thrombin (setting [1]), the “V0 / Vi” value is listed as 1.00; the vinit is 28.182 and 30.8. Also, at bovine factor Xa (setting [2]), the “V0 / Vi” value stood at 0.99; the vinit was 18.218 and 17.091.
On to `CCc1ccc(NC2=NCCCS2)cc1` [SX-D2], for which the figures for the “V0 / Vi” value on human thrombin (setting [1]) and on bovine factor Xa (setting [2]) were 0.96 and 1.02, respectively. The vinit is 30.909 and 30.582 at human thrombin (setting [1]); 16.873 and 17.6 at bovine factor Xa (setting [2]).
With `Nc1nnc(-c2cccs2)[nH]1` [SX-D3], the “V0 / Vi” value is recorded as 1.11 at human thrombin (setting [5]), 1.08 at human thrombin (setting [6]), 1.08 at human thrombin (setting [1]) and 1.09 on bovine factor Xa (setting [2]). Moreover, the “vinit, avrg.” value on human thrombin (setting [5]) was determined as 23.831; on human thrombin (setting [6]), 31.345. Besides, the vinit is 23.075 and 23.01 and 25.41 at human thrombin (setting [5]); 30.327 and 31.656 and 32.05 on human thrombin (setting [6]); 26.655 and 27.673 on human thrombin (setting [1]); 16.545 and 15.782 on bovine factor Xa (setting [2]). For the same compound, the results for the inhibition constant Ki on human thrombin (setting [7]) and at human thrombin (setting [8]) were 204 µM and 158 µM, respectively.
Turning to `CCn1cnc2ccccc21` [SX-D4], on human thrombin (setting [1]), the “V0 / Vi” value stood at 0.98 and the vinit is on record as 30.291. On bovine factor Xa (setting [2]), the “V0 / Vi” value was found to be 1.03; the vinit is 16.929 and 16.571.
As to `CCCN1C(=O)CC(=O)NC1=S` [SX-D5], the “V0 / Vi” value at human thrombin (setting [1]) is 1.13; on bovine factor Xa (setting [2]), 1.06. Besides, the vinit on human thrombin (setting [1]) is 26.909 and 25.673; on bovine factor Xa (setting [2]), 16.429 and 16.071.
Regarding `Cc1ccc(C)n1Cc1ccccc1Cl` [SX-D6], at human thrombin (setting [1]), the “V0 / Vi” value was determined as 1.24; the vinit was 26.364 and 21.673. Also, at bovine factor Xa (setting [2]), the “V0 / Vi” value turned out to be 0.98; the vinit is 17.786 and 17.286.
Regarding `Cc1ccc(-c2ccc(O)cc2)cc1` [SX-D7], the entries for the “V0 / Vi” value at human thrombin (setting [1]) and on bovine factor Xa (setting [2]) were 1.05 and 1.15, respectively. Further, the vinit is 30.8 and 28.545 at human thrombin (setting [1]); 14.909 and 16.073 at bovine factor Xa (setting [2]).
As for `c1ccc(Nc2nncs2)cc1` [SX-D8], the “V0 / Vi” value at human thrombin (setting [1]) is recorded as 0.99; at bovine factor Xa (setting [3]), 1.15; on bovine factor Xa (setting [4]), 1.14; on bovine factor Xa (setting [2]), 1.17. In addition, the vinit was 30.873 and 31.527 on human thrombin (setting [1]); 15.1223 and 13.77 and 13.49 on bovine factor Xa (setting [3]); 30.094 and 32.958 and 33.09 at bovine factor Xa (setting [4]); 15.418 and 15.164 at bovine factor Xa (setting [2]). Moreover, at bovine factor Xa (setting [3]), the “vinit, avrg.” value was 14.126. Besides, the Ki turned out to be 814 µM at bovine factor Xa (substrate 100 µM) and 652 µM at bovine factor Xa (substrate 200 µM).
Regarding `CC1CCc2sc(C(=O)O)cc2C1` (centres unmarked) [SX-D9], the “V0 / Vi” value was found to be 1.41 on human thrombin (setting [5]), 1.17 at human thrombin (setting [6]), 1.40 at human thrombin (setting [1]) and 1.04 on bovine factor Xa (setting [2]). Besides, the “vinit, avrg.” value on human thrombin (setting [5]) was found to be 18.876; at human thrombin (setting [6]), 28.950. Further, the vinit at human thrombin (setting [5]) was 19.443 and 19.03 and 18.15; at human thrombin (setting [6]), 33.096 and 26.331 and 27.42; on human thrombin (setting [1]), 23.527 and 20.764; at bovine factor Xa (setting [2]) it was 17.818 and 16.655. Besides, the results for the Ki at human thrombin (setting [7]) and at human thrombin (setting [8]) were 57 µM and 73 µM, respectively.
As to `c1ccc2oc(C3CCCNC3)nc2c1` (centres unmarked) [SX-D10], on human thrombin (setting [1]), the “V0 / Vi” value was determined as 0.92; the vinit is 35.091 and 33.236. In addition, on bovine factor Xa (setting [2]), the “V0 / Vi” value is reported as 0.95; the vinit was 15 and 15.3.
Regarding `COc1ccc(CN2CCNCC2)cc1F` [SX-D11], the “V0 / Vi” value is 0.91 at human thrombin (setting [1]) and 0.84 at bovine factor Xa (setting [2]). Besides, the vinit was 34.582 and 34.364 on human thrombin (setting [1]); 17.75 and 16.65 on bovine factor Xa (setting [2]).

These data come from article PMC8159961, “Exploring protein hotspots by optimized fragment pharmacophores” (Nature Communications, 2021).
